Measured values: patent US3954777A, “Aminopropionyl derivatives of 2,3-diphenyl cyclopropylamine” (Zambon S.p.A., priority 1970, dated 1976)
Where a name gives a salt, the structure may show the parent alone. Read-outs that look alike come from different tables or passages of the source.

Assays:
[1] = system: crisis produced with cardiazol; experiment: Schock by cardiazol (M.M.S.), protection from extensor phase of hind paws; assay type: in vivo, male albine Swiss mice; settings: Mus musculus
Description: (§1) The preferred method is that according to Schotten-Baumann. […] Preferably an excess of the same amine is used both as acid binding substance and as solvent. If the amine is a low-boiling one the reaction is carried out in a sealed tube while if the amine has a high-boiling point is preferred to operate at the boiling temperature of the reaction mixture. […] Materials and methods. The animals used in the tests, unless otherwise indicated, were male albine Swiss mice weighing 19-23 g; each animal has been used only once.
(§2) Electroshock (M.E.S.). The method followed in performing the electroshock is C. H. Cashin and J. Jackson's method (J.Pharm.Pharmacol.,1962, 14 (supl.) 445) modified as follows: the electrodes are placed in the outer ear which is, before the shock, filled with a physiological solution. The applied voltage is of 92 volts with a current of 50 Hz stabilized with Selonix H.T. 4420 stabilizer; duration of shock 0.2 seconds. […] (E. A. Swinyard, W. C. Brown; L. S. Goodman, J. Pharmacol., 1952, 106, 319) Schock by cardiazol (M.M.S.). 38 mg/kg of cardiazol, under the form of a 0.38% aqueous solution, is quickly injected in the dorsal vein of the mouse tail (L. S. Goodman, M. Singh Grewal, W. C. Brown, E. A. Swinyard, J. Pharmacol. 1953, 108, 168). The animals are considered as protected when the extensor phase of the hind paws is eliminated during the tonic crisis. The so obtained data have been elaborated by calculating the ED50 and the LD50 according to Lichtfield-Wilcoxon's method (J. Pharmacol. 1949, 96, 99).

[2] = system: crisis produced with electroshock; experiment: Electroshock (M.E.S.), protection from extensor phase of hind paws; assay type: in vivo, male albine Swiss mice; settings: Mus musculus
Description: as §1, §2

in vivo = settings: mouse, ip
Description: as §1, §2

[3] = sc, 0.5 h, new compounds (Table 2), under skin, 30 minutes ante, as hydrochlorides, cardiazol 38 mg/kg i.v., read-out: ED50 M.M.S.
[4] = sc, 0.5 h, new compounds (Table 2), under skin, 30 minutes ante, as hydrochlorides, read-out: ED50 M.E.S.
[5] = sc, 0.5 h, read-out: M.M.S. ED50
[6] = sc, 0.5 h, reference compounds (Table 1), under skin, 30 minutes ante, cardiazol 38 mg/kg i.v., read-out: M.M.S. ED50
[7] = sc, 0.5 h, reference compounds (Table 1), under skin, 30 minutes ante, read-out: M.E.S.-ED50

Work on `O=C(CCN1CCCC1)NC1[C@H](c2ccccc2)[C@H]1c1ccccc1` (relative stereo) [cis-trans (line b76)] yielded an ED50 [1, 3] of 20 mg/kg and an ED50 [2, 4] of 24 mg/kg.
Work on `O=C(CCN1CCCCC1)NC1[C@H](c2ccccc2)[C@H]1c1ccccc1` (relative stereo) [cis-trans (line b79)] yielded an ED50 [1, 3] of 15 mg/kg and an ED50 [2, 4] of 16 mg/kg.
With `CN1CCN(CCC(=O)NC2[C@H](c3ccccc3)[C@H]2c2ccccc2)CC1` (relative stereo) [cis-trans (line b82)] the ED50 [2, 4] was 275 mg/kg.
Compound `CCN(CC)CCC(=O)NC1[C@H](c2ccccc2)[C@H]1c1ccccc1` (relative stereo) [cis-trans, R1 = C2 H5, R2 = C2 H5, N-(beta-diethylamino)propionyl-2,3 -cis,trans-diphenylcyclopropylamine] has an ED50 [1, 3] of 27 mg/kg, an LD50 at 72 h (in vivo) of 79 mg/kg and an ED50 [2, 4] of 33.5 mg/kg.
`CN(CCC(=O)NC1[C@H](c2ccccc2)[C@H]1c1ccccc1)Cc1ccccc1` (relative stereo) [cis-trans, R1 = CH3, R2 = CH2 --C6 H5, N-[beta-(N'-benzyl)methylamino]propionyl-2,3-cis,trans-diphenylcyclopropylamine hydrochloride] gave an ED50 [1, 3] of 98 mg/kg and an ED50 [2, 4] of 91 mg/kg.
Work on `CN(C)CCC(=O)NC1[C@H](c2ccccc2)[C@H]1c1ccccc1` (relative stereo) [cis-trans, R1 = CH3, R2 = CH3, N-(beta-dimethylamino)propionyl-2,3 -cis,trans-diphenylcyclopropylamine] yielded an ED50 [1, 3] of 16.5 mg/kg, an LD50 at 72 h (in vivo) of 88 mg/kg and an ED50 [2, 4] of 21.8 mg/kg.
Work on `CCNCCC(=O)NC1[C@H](c2ccccc2)[C@H]1c1ccccc1` (relative stereo) [cis-trans, R1 = H, R2 = C2 H5, N-(beta-ethylamino)propionyl- 2,3 -cis,trans-diphenylcyclopropylamine hydrochloride] yielded an ED50 [1, 3] of over 90 mg/kg, an LD50 at 72 h (in vivo) of 89.5 mg/kg and an ED50 [2, 4] of over 90 mg/kg.
For `CNCCC(=O)NC1[C@H](c2ccccc2)[C@H]1c1ccccc1` (relative stereo) [cis-trans, R1 = H, R2 = CH3, N-(beta-methylamino)-propionyl-2,3 -cis,trans-diphenyl cyclopropylamine hydrochloride], the ED50 [1, 3] was over 120 mg/kg, the LD50 at 72 h (in vivo) was 120 mg/kg and the ED50 [2, 4] was over 120 mg/kg.
With `CCC1(c2ccccc2)C(=O)NC(=O)NC1=O` [Phenobarbital sodium salt, reference compound] the ED50 [1, 5] was 4.5 mg/kg, the LD50 at 72 h (in vivo; in vivo) was 182 mg/kg and the ED50 ([2]; sc, 0.5 h, read-out: M.E.S.-ED50) was 35 mg/kg.
In the case of `CN(C)C(=O)Nc1ccccc1` [Phenurone, 1,1-dimethyl-3-phenyl-urea, reference compound], the ED50 ([1]; po, 1 h, read-out: M.M.S. ED50) is reported as 50 mg/kg and the ED50 ([2]; po, 1 h, read-out: M.E.S.-ED50) is reported as 115 mg/kg.
`CN1C(=O)OC(C)(C)C1=O` [Trimethadione, reference compound] showed an ED50 [1, 5] of 175 mg/kg.
Compound `CCC1(C)CC(=O)NC1=O` (centres unmarked) [ethosuximide, reference compound] has an ED50 [1, 6] of 50 mg/kg.
Work on `Cc1ccccc1OCC(O)CO` (centres unmarked) [mephenesin, reference compound] yielded an ED50 [1, 6] of 180 mg/kg and an ED50 [2, 7] of 245 mg/kg.
Compound `O=C1NC(=O)C(c2ccccc2)(c2ccccc2)N1` [phenitoine sodium salt, reference compound] has an ED50 [1, 6] of 7.1 mg/kg, an LD50 at 72 h (in vivo; in vivo) of 120 mg/kg and an ED50 [2, 7] of 15 mg/kg.
Work on `CCC1(c2ccccc2)C(=O)NCNC1=O` [primidone, reference compound] yielded an ED50 ([1]; po, reference compound (Table 1), per os, 6 hours ante, cardiazol 38 mg/kg i.v., read-out: M.M.S. ED50) of 5.2 mg/kg.
